Laboratory results reported in US9681664B2, “Macrocyclic picolinamides as fungicides” (Dow Agrosciences LLC, priority 2012, dated 2017).
Read-outs that look alike come from different tables or passages of the source.

Key:
Format in all cases: in vivo
Rhyncosporium secalis = test: Barley scald (RHYNSE) disease control; conditions: 24 h, High volume application, 1 Day Protectant, read-out: RHYNSE 1 DP disease control
Protocol: (§1) Technical grades of materials were dissolved in acetone, which were then mixed with nine volumes of water containing 110 ppm Triton X-100. The fungicide solutions were applied onto wheat seedlings using an automated booth sprayer to run-off. All sprayed plants were allowed to air dry prior to further handling. All fungicides were evaluated using the aforementioned method for their activity vs. all target diseases. Wheat leaf blotch and brown rust activity were also evaluated using track spray applications, in which case the fungicides were formulated as EC formulations, containing 0.1% Trycol 5941 in the spray solutions. Barley seedlings (variety Harrington) were propagated in soil-less Metro mix, with each pot having 8 to 12 plants, and used in the test when first leaf was fully emerged. Test plants were inoculated by an aqueous spore suspension of Rhyncosporium secalis 24 hr after fungicide treatments. After inoculation the plants were kept in a dew room at 20° C. with 100% relative humidity for 48 hr. The plants were then transferred to a greenhouse set at 20° C. for disease to develop. Fungicide formulation, application and disease assessment on the sprayed leaves followed the procedures as described in the Example A.

Phakopsora pachyrhizi = test: Asian soybean rust (PHAKPA) disease control; conditions: topical, high volume
Summary of the method: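 Compounds in acetone diluted with nine volumes water containing 0.011% Tween 20, sprayed to run-off on two-week-old Williams 82 soybean seedlings, inoculated 3 days before or 1 day after treatment. Plants held 24 h in dark dew room at 22 °C, 100% RH, then at 23 °C; disease severity scored on sprayed leaves.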

Cercospora beticola = test: Leaf spot of sugar beets (CERCBE) disease control; conditions: 24 h, 1 Day Protectant, high volume, read-out: Disease Control CERCBE 1 DP
Protocol: Technical grades of materials were dissolved in acetone, which were then mixed with nine volumes of water containing 110 ppm Triton X-100. The fungicide solutions were applied onto wheat seedlings using an automated booth sprayer to run-off. All sprayed plants were allowed to air dry prior to further handling. All fungicides were evaluated using the aforementioned method for their activity vs. all target diseases. Wheat leaf blotch and brown rust activity were also evaluated using track spray applications, in which case the fungicides were formulated as EC formulations, containing 0.1% Trycol 5941 in the spray solutions. Sugar beet plants (variety HH88) were grown in soil-less Metro mix and trimmed regularly to maintain a uniform plant size prior to test. Plants were inoculated with a spore suspension 24 hr after fungicide treatments. Inoculated plants were kept in a dew chamber at 22° C. for 48 hr then incubated in a greenhouse set at 24° C. under a clear plastic hood with bottom ventilation until disease symptoms were fully expressed. Fungicide formulation, application and disease assessment on the sprayed leaves followed the procedures as described in the Example A.

[1] = test system: Blumeria graminis f. sp. hordei; Synonym: Erysiphe graminis f. sp. hordei; test: Barley powdery mildew (ERYSGH) disease control; conditions: 24 h, 1 Day Protectant, high volume, read-out: Disease Control ERYSGH 1 DP
Protocol: as §1, with “dusting with infected stock plants” for “an aqueous spore suspension of Rhyncosporium secalis”, “in” for “in a dew room at 20° C. with 100% relative humidity for 48 hr. The plants were then transferred to”

[2] = test system: Mycosphaerella graminicola; Anamorph: Septoria tritici; test: Leaf blotch of wheat (SEPTTR) disease control on wheat seedlings; conditions: Zymoseptoria tritici, Wheat Leaf Blotch; for pest or weed control at 100 ppm: high volume application; for pest or weed control at 121.5 g/ha: low volume application, 121.5 g/H
Summary of the method: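 Protective or curative format: Septoria tritici inoculation either preceded or followed fungicide application to first-leaf Yuma wheat. Severity scored 0–100%; control expressed versus untreated.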

Alternaria solani = test: Tomato early blight (ALTESO) disease control; conditions: 24 h, 1 Day Protectant, high volume, read-out: Disease Control ALTESO 1 DP
Protocol: Technical grades of materials were dissolved in acetone, which were then mixed with nine volumes of water containing 110 ppm Triton X-100. The fungicide solutions were applied onto wheat seedlings using an automated booth sprayer to run-off. All sprayed plants were allowed to air dry prior to further handling. All fungicides were evaluated using the aforementioned method for their activity vs. all target diseases. Wheat leaf blotch and brown rust activity were also evaluated using track spray applications, in which case the fungicides were formulated as EC formulations, containing 0.1% Trycol 5941 in the spray solutions. Tomato plants (variety Outdoor girl) were propagated in soil-less Metro mix, with each pot having one plant, and used when 12 to 14 days old. Test plants were inoculated with an aqueous spore suspension of Alternaria solani 24 hr after fungicide treatments. After inoculation the plants were kept in 100% relative humidity (one day in a dark dew chamber followed by two to three days in a lighted dew chamber at 20° C.) to permit spores to germinate and infect the leaf. The plants were then transferred to a growth room at 22° C. for disease to develop. Fungicide formulation, application and disease assessment on the sprayed leaves followed the procedures as described in the Example A.

[3] = test system: Magnaporthe grisea; Anamorph: Pyricularia oryzae; test: whole plant or invertebrate; conditions: 24 h, read-out: PYRIOR 1 DP disease control
[4] = 24 h, 1 Day Protectant, read-out: Disease Control PHAKPA 1DP
[5] = 72 h, 3 Day Curative, read-out: Disease Control PHAKPA 3DC
[6] = 24 h, 1 Day Protectant, read-out: Disease Control SEPTTR 1 DP 100 ppm
[7] = 24 h, 1 Day Protectant, read-out: Disease Control SEPTTR 1 DP 121.5 g/H
[8] = 72 h, 3 Day Curative, read-out: Disease Control SEPTTR 3 DC 100 ppm
[9] = 72 h, 3 Day Curative, read-out: Disease Control SEPTTR 3 DC 121.5 g/H

Structure (SMILES) | pest or weed control at 100 ppm (Rhyncosporium secalis) | pest or weed control at 25 ppm (Phakopsora pachyrhizi; [4]) | pest or weed control at 25 ppm (Phakopsora pachyrhizi; [5]) | pest or weed control at 100 ppm (Cercospora beticola) | pest or weed control at 100 ppm [1] | pest or weed control at 100 ppm [2, 6] | pest or weed control at 121.5 g/ha [2, 7] | pest or weed control at 100 ppm [2, 8] | pest or weed control at 121.5 g/ha [2, 9] | pest or weed control at 100 ppm (Alternaria solani) | pest or weed control at 100 ppm [3]
CCOCC(=O)OCOc1c(OC)ccnc1C(=O)N[C@H]1CCC[C@H](Oc2ccccc2)[C@@H](OC(=O)C2CCCC2)[C@H](C)OC1=O [F237] | < 0% | 80 to 100% | < 0% | 80 to 100% | 0 to 80% | 0 to 80% | < 0% | 0 to 80% | 0 to 80% | 0 to 80% | 80 to 100%
COc1ccnc(C(=O)N[C@H]2CCC[C@H](Oc3ccccc3)[C@@H](OC(=O)C3CC3)[C@H](C)OC2=O)c1OCOC(=O)C(C)C [F241] | 0 to 80% | 80 to 100% | 0 to 80% | 80 to 100% | 0 to 80% | 80 to 100% | < 0% | 80 to 100% | < 0% | 0 to 80% | 80 to 100%
COc1ccnc(C(=O)N[C@H]2CCC[C@H](Oc3ccccc3)[C@@H](OC(=O)C3CC3)[C@H](C)OC2=O)c1OC(C)=O [F242] | < 0% | 80 to 100% | 0 to 80% | 80 to 100% | 0 to 80% | 80 to 100% | 0 to 80% | 80 to 100% | 0 to 80% | < 0% | 80 to 100%
C=C(C)CO[C@H]1CCC[C@H](NC(=O)c2nccc(OC)c2OCOC(C)=O)C(=O)O[C@@H](C)[C@@H]1OC [F250] | 0 to 80% | 0 to 80% | < 0% | 0 to 80% | 0 to 80% | – | < 0% | – | 0 to 80% | 0 to 80% | 80 to 100%
COc1ccnc(C(=O)N[C@H]2CCC[C@H](OCC(C)C)[C@@H](OC)[C@H](C)OC2=O)c1OCOC(C)=O [F251] | 0 to 80% | 80 to 100% | 0 to 80% | 0 to 80% | < 0% | – | < 0% | – | < 0% | 0 to 80% | 80 to 100%
COc1ccnc(C(=O)N[C@H]2CCC[C@H](Oc3ccccc3)[C@@H](OC)[C@H](C)OC2=O)c1OCOC(C)=O [F252] | 80 to 100% | 80 to 100% | 0 to 80% | 0 to 80% | 0 to 80% | – | 0 to 80% | – | 0 to 80% | 0 to 80% | 80 to 100%
C=C(C)CO[C@H]1CCC[C@H](NC(=O)c2nccc(OC)c2OCOC(=O)C(C)C)C(=O)O[C@@H](C)[C@@H]1OC [F253] | 0 to 80% | 0 to 80% | < 0% | < 0% | 0 to 80% | – | < 0% | – | < 0% | 0 to 80% | 80 to 100%
COc1ccnc(C(=O)N[C@H]2CCC[C@H](OCC(C)C)[C@@H](OC)[C@H](C)OC2=O)c1OCOC(=O)C(C)C [F254] | 80 to 100% | 80 to 100% | 0 to 80% | 0 to 80% | 0 to 80% | – | < 0% | – | < 0% | 0 to 80% | 80 to 100%
COc1ccnc(C(=O)N[C@H]2CCC[C@H](Oc3ccccc3)[C@@H](OC)[C@H](C)OC2=O)c1OCOC(=O)C(C)C [F255] | 80 to 100% | 80 to 100% | 0 to 80% | 0 to 80% | 0 to 80% | – | 0 to 80% | – | 0 to 80% | 0 to 80% | 80 to 100%
